Laboratory results: ChEMBL document CHEMBL3046028, “3D-QSAR study of tyrosine and propanoic acid derivatives as PPAR/ dual agonists using CoMSIA” (Med Chem Res, 2013)
pEC50: −log10 of the molar value.

Legend:
[1] = biological target: T1, Peroxisome proliferator-activated receptor alpha (Homo sapiens, UniProt Q07869); experiment: Transactivation of GAL4-fused Homo sapiens (human) PPARalpha […] expressed in African green monkey CV1 cells by luciferase reporter gene assay; format: cell-based, CV-1; conditions: for pEC50: read-out: EC50; for EC50: read-out: pEC50 (converted)
T1 sequence (Q07869 whole entry): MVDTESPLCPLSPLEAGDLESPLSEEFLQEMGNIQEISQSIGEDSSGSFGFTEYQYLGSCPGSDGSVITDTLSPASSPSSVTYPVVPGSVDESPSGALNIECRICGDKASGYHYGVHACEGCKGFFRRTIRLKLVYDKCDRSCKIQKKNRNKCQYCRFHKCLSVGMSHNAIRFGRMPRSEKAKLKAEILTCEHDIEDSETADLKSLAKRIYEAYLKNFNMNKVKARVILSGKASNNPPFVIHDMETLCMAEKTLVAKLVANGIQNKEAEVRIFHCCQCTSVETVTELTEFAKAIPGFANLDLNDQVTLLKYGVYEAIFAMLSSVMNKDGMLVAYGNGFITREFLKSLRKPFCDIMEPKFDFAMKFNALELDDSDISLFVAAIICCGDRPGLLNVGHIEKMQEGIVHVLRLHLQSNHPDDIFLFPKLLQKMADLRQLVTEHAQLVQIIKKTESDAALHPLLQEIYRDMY

[2] = biological target: T2, Peroxisome proliferator-activated receptor gamma (Homo sapiens, UniProt P37231); format: cell-based, CV-1
T2 sequence (P37231 whole entry): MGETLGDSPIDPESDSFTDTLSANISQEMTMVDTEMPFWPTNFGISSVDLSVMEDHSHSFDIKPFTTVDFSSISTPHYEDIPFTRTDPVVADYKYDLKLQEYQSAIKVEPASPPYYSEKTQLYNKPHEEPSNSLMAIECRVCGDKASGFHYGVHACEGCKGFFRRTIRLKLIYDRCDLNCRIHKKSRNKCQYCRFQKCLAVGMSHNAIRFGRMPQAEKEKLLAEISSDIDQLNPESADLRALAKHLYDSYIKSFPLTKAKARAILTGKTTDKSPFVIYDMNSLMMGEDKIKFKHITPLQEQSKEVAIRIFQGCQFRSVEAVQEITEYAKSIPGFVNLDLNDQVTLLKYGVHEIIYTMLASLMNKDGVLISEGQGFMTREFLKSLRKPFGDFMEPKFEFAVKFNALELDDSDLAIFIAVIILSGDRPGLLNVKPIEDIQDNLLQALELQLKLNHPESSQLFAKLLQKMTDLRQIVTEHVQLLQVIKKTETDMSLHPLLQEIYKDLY
Description: Transactivation of GAL4-fused Homo sapiens (human) PPARgamma DNA binding domain expressed in African green monkey CV1 cells by luciferase reporter gene assay

pEC50 [1] | pEC50 [2] | Structure (SMILES) | EC50 [1]
6.34 | 9.47 | Cc1oc(-c2ccccc2)nc1CCOc1ccc(C[C@@](O)(C(=O)O)c2ccccc2C(=O)c2ccccc2)cc1 | –
– | – | CCO[C@@H](Cc1ccc(OC/C=C(/c2ccccc2)c2ccc(F)cc2)cc1)C(=O)O | 3.16 µM
– | – | CCO[C@@H](Cc1ccc(OC/C=C(/c2ccccc2)c2ccc(-c3ccccc3)cc2)cc1)C(=O)O | 0.692 µM
5.46 | 9.15 | COC(=O)c1ccccc1[C@@](O)(Cc1ccc(OCCc2nc(-c3ccccc3)oc2C)cc1)C(=O)O | –
5.19 | 8.89 | Cc1sc(N2CCN(C)CC2)nc1CCOc1ccc(C[C@@](O)(C(=O)O)c2ccccc2C(=O)c2ccccc2)cc1 | –
5.98 | 10.00 | Cc1sc(-c2ccccc2)nc1CCOc1ccc(C[C@@](O)(C(=O)O)c2ccccc2C(=O)c2ccccc2)cc1 | –
5.16 | 7.62 | Cc1oc(-c2ccccc2)nc1CCOc1ccc(C[C@@]2(C(=O)O)CCOCCO2)cc1 | –
– | 7.70 | Cc1oc(-c2ccccc2)nc1CCOc1ccc(C[C@]2(C(=O)O)C=CC=CO2)cc1 | –
